In patent US6656911B2, “Serine protease inhibitors” (Cortech, Inc., priority 1994, dated 2003):

Target: T1, human neutrophil elastase (HNE) (Homo sapiens, UniProt P08246)
T1 sequence (P08246 30-267): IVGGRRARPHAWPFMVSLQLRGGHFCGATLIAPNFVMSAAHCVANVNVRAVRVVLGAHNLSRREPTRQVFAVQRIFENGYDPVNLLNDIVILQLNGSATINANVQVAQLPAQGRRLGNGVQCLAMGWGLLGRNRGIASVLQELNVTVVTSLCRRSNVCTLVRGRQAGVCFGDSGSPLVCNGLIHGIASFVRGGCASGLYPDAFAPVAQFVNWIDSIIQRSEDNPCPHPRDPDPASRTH
Test: HNE Ki of CE compounds, tested as described in WO 96/16080
Assay type: biochemical
Conditions: read-out: HNE Ki

Compound	Ki [nM]
Cc1cccc(Cc2nnc(C(=O)[C@@H](NC(=O)CN3C(=O)N[C@H](Cc4ccccc4)C3=O)C(C)C)o2)c1 [CE2142, 5-(R)-Benzyl-2,4-imidazolidinedione-N-[1-(2-[5-(3-methylbenzyl)-1,3,4-oxadiazolyl]carbonyl)-2-(S)-methylpropyl]acetamide]	8.7
CC(C)[C@H](NC(=O)[C@@H]1CCCN1C(=O)[C@@H](NC(=O)OCc1ccccc1)C(C)C)C(=O)c1noc(Cc2cc(C(F)(F)F)cc(C(F)(F)F)c2)n1 [CE2054, (Benzyloxycarbonyl)-L-valyl-N-[1-(3-[5-(3,5-ditrifluoromethylbenzyl)-1,2,4-oxadiazolyl]carbonyl)-2-(S)-methylpropyl]-L-prolinamide]	0.29
CC(C)[C@H](NC(=O)[C@@H]1CCCN1C(=O)[C@@H](NC(=O)OCc1ccccc1)C(C)C)C(=O)c1noc(Cc2cccc(Oc3ccccc3)c2)n1 [CE2066, (Benzyloxycarbonyl)-L-valyl-N-[1-(3-[5-(3-phenoxybenzyl)-1,2,4-oxadiazolyl]carbonyl)-2-(S)-methylpropyl]-L-prolinamide]	0.98
3-(S)-Amino-ε-lactam-N-[1-(2-[5-(3-methylbenzyl)-1,3,4-oxadiazolyl]carbonyl)-2-(S)-methylpropyl]acetamide trifluoroacetic acid salt [CE2080]	62
Cc1cc(C)cc(Cc2nc(C(=O)[C@@H](NC(=O)[C@@H]3CCCN3C(=O)[C@@H](NC(=O)OCc3ccccc3)C(C)C)C(C)C)no2)c1 [CE2052, (Benzyloxycarbonyl)-L-valyl-N-[1-(3-[5-(3,5-dimethylbenzyl)-1,2,4-oxadiazolyl)carbonyl)-2-(S)-methylpropyl]-L-prolinamide]	0.37
CC(C)[C@H](NC(=O)CN1C(=O)CN(Cc2ccccc2)C(=O)[C@H]1Cc1ccccc1)C(=O)c1noc(Cc2cccc(C(F)(F)F)c2)n1 [CE2146, 4-[1-Benzyl-3-(R)-benzylpiperazine-2,5,-dione]-N-[1-(3-(5-(3-trifluoromethylbenzyl)-1,2,4-oxadiazolyl]carbonyl)-2-(S)-methylpropyl]acetamide]	67
CC(C)C(NC(=O)CN1C(=O)C(Cc2ccccc2)N(CCN2CCOCC2)C1=O)C(=O)c1noc(Cc2cccc(C(F)(F)F)c2)n1 [CE2181, 1-(N-Morpholinoethyl)-5-(S)-benzyl-2,4-imidazolidinedione-N-[1-(3-[5-(3-trifluoromethylbenzyl)-1,2,4-oxadiazolyl]carbonyl)-2-(R,S)-methylpropyl]acetamide]	46
Cc1cccc(Cc2nnc(C(=O)C(NC(=O)CN3CC(=O)NC[C@H]3c3ccccc3)C(C)C)o2)c1 (stereo partly drawn) [CE2208, (2-(R)-Phenylpiperazin-5-one)-N-[1-(2-[5-(3-methylbenzyl)-1,3,4-oxadiazolyl]carbonyl)-2-(R,S)-methylpropyl]acetamide]	40
Cc1cccc(Cc2nnc(C(=O)C(NC(=O)CN3C(=O)CN(C)C(=O)C3c3ccccc3)C(C)C)o2)c1 [CE2106, 4-[1-Methyl-3-(R,S)-phenylpiperazine-2,5,-dione]-N-[1-(2-[5-(3-methylbenzyl)-1,3,4-oxadiazolyl]carbonyl)-2-(S)-methylpropyl]acetamide]	41
CC(C)[C@H](NC(=O)[C@@H]1CCCN1C(=O)[C@@H](NC(=O)OCc1ccccc1)C(C)C)C(=O)c1noc(C(c2ccccc2)c2ccccc2)n1 [CE2057]	0.375
CC(C)[C@H](NC(=O)[C@@H]1CCCN1C(=O)[C@@H](NC(=O)OCc1ccccc1)C(C)C)C(=O)c1nnc(Cc2cccc(C(F)(F)F)c2)o1 [CE2075, (Benzyloxycarbonyl)-L-valyl-N-[1-(2-[5-(3-trifluoromethylbenzyl)-1,3,4-oxadiazolyl]carbonyl)-2-(S)-methylpropyl]-L-prolinamide]	0.039
CC(C)[C@H](NC(=O)[C@@H]1CCCN1C(=O)[C@@H](NC(=O)OCc1ccncc1)C(C)C)C(=O)c1noc(Cc2cccc(C(F)(F)F)c2)n1 [CE2185, 4-Pyridylmethyleneoxycarbonyl-L-valyl-N-[1-(3-[5-(3-trifluoromethylbenzyl)-1,2,4-oxadiazolyl]carbonyl)-2-(S)-methylpropyl]-L-prolinamide]	0.27
Cc1cccc(Cc2nnc(C(=O)[C@@H](NC(=O)CN3C(=O)CN(C(=O)OCc4ccccc4)C[C@H]3Cc3ccccc3)C(C)C)o2)c1 [CE2190, [1-Benzyloxycarbonyl-5-(R)-benzylpipeazin-3-one]-N-[1-(2-[5-(3-methylbenzyl)-1,3,4-oxadiazolyl]carbonyl)-2-(S)-methylpropyl]acetamide]	29
CC(C)C(NC(=O)CN1C(=O)CN(C)C(=O)C1c1ccccc1)C(=O)c1noc(Cc2cccc(C(F)(F)F)c2)n1 [CE2084, 4-[1-Methyl-3-(R,S)-phenylpiperazine-2,5,-dione]-N-[1-(3-[5-(3-trifluoromethylbenzyl)-1,2,4-oxadiazolyl]carbonyl)-2-(S)-methylpropyl]acetamide]	133
Cc1cccc(Cc2nnc(C(=O)[C@@H](NC(=O)Cn3c(-c4cccs4)ncc(N)c3=O)C(C)C)o2)c1 [CE2262, 2-[5-Amino-6-oxo-2-thiophenyl-1,6-dihydro-1-pyrimidinyl]-N-[1-(2-[5-(3-methylbenzyl)-1,3,4-oxadiazolyl]carbonyl)-2-(S)-methylpropyl]acetamide]	0.42
CC(C)C(NC(=O)CN1C(=O)C(Cc2ccccc2)N(CCN2CCOCC2)C1=O)C(=O)c1noc(Cc2cccc(C(F)(F)F)c2)n1 [CE2180, 1-(N-Morpholinoethyl)-5-(R)-benzyl-2,4-imidazolidinedione-N-[1-(3-[5-(3-trifluoromethylbenzyl)-1,2,4-oxadiazolyl]carbonyl)-2-(R,S)-methylpropyl]acetamide]	44
CC(C)[C@H](NC(=O)[C@@H]1CCCN1C(=O)[C@@H](NC(=O)OCc1ccccc1)C(C)C)C(=O)c1noc(Cc2cccc3ccccc23)n1 [CE2077, (Benzyloxycarbonyl)-L-valyl-N-[1-(3-[5-(1-napthylmethylene)-1,2,4-oxadiazolyl]carbonyl)-2-(S)-methylpropyl]-L-prolinamide]	0.15
CC(C)[C@H](NC(=O)CN1C(=O)CN(Cc2ccccc2)C(=O)[C@@H]1Cc1ccccc1)C(=O)c1noc(Cc2cccc(C(F)(F)F)c2)n1 [CE2129, 4-[1-Benzyl-3-(S)-benzylpiperazine-2,5,-dione]-N-[1-(3-[5-(3-trifluoromethylbenzyl)-1,2,4-oxadiazolyl]carbonyl)-2-(S)-methylpropyl]acetamide]	300
Cc1cccc(Cc2nnc(C(=O)C(NC(=O)CN3C(=O)C[S+]([O-])C3Cc3ccccc3)C(C)C)o2)c1 [CE2136, 2-[(2-(R,S)-Benzyl-4-oxothiazolidin-3-yloxide]-N-[1-(2-[5-(3-methylbenzyl)-1,3,4-oxadiazolyl]carbonyl)-2-(R,S)-methylpropyl]acetamide]	104
COc1cc(Cc2nc(C(=O)[C@@H](NC(=O)[C@@H]3CCCN3C(=O)[C@@H](NC(=O)OCc3ccccc3)C(C)C)C(C)C)no2)cc(OC)c1 [CE2053, (Benzyloxycarbonyl)-L-valyl-N-[1-(3-[5-(3,5-dimethoxybenzyl)-1,2,4-oxadiazolyl]carbonyl)-2-(S)-methylpropyl]-L-prolinamide]	0.41
Cc1cccc(Cc2nnc(C(=O)C(NC(=O)C3Cc4ccccc4CN3C(=O)C(NC(=O)OCc3ccccc3)C(C)C)C(C)C)o2)c1 [CE2183, Benzyloxycarbonyl-L-valyl-(1,2,3,4-tetrahydroisoquinoline)-3-N-[1-(2-[5-(3-methylbenzyl)-1,3,4-oxadiazolyl]carbonyl)-2-(R,S)-methylpropyl]amide]	0.23
CC(C)C(NC(=O)CN1C(=O)C(c2ccccc2)N(C)C1=O)C(=O)c1noc(Cc2cccc(C(F)(F)F)c2)n1 [CE2182, 5-(R,S)-Phenyl-1-methyl-2,4-imidazolidinedione-N-[1-(3-[5-(3-trifluoromethylbenzyl)-1,2,4-oxadiazolyl]carbonyl)-2-(S)-methylpropyl]acetamide]	54
CC(=O)N1CC(=O)N(CC(=O)N[C@H](C(=O)c2nnc(Cc3cccc(C)c3)o2)C(C)C)C(=Cc2ccncc2)C1=O [CE2114, 1-Acetyl-3-[(4-pyridyl)methylene] piperazine-2,5-dione-N-[1-(2-[5-(3-methylbenzyl)-1,3,4-oxadiazolyl]carbonyl)-2-(S)-methylpropyl]acetamide]	25
CC(C)[C@H](NC(=O)[C@@H]1CCCN1C(=O)[C@@H](NC(=O)OCc1ccccc1)C(C)C)C(=O)c1noc(C(C)(C)c2cccc(C(F)(F)F)c2)n1 [CE2073, (Benzyloxycarbonyl)-L-valyl-N-[1-(3-[5-(α,α-dimethyl-3-trifluoromethylbenzyl)-1,2,4-oxadiazolyl]carbonyl)-2-(S)-methylpropyl]-L-prolinamide]	0.235
CC(C)[C@H](NC(=O)CN1C(=O)NC(c2ccccc2)C1=O)C(=O)c1noc(Cc2cccc(C(F)(F)F)c2)n1 (stereo partly drawn) [CE2198, 4-(R,S)-Phenyl-2,5-imidazolidinedione-N-[1-(3-[5-(3-trifluoromethylbenzyl)-1,2,4-oxadiazolyl]carbonyl)-2-(S)-methylpropyl]acetamide]	3.1
CC(C)[C@H](NC(=O)[C@@H]1CCCN1C(=O)[C@@H](NC(=O)c1cccnc1)C(C)C)C(=O)c1noc(Cc2cccc(C(F)(F)F)c2)n1 [CE2171, (3-Pyridylcarbonyl)-L-valyl-N-[1-(3-[5-(3-trifluoromethylbenzyl)-1,2,4-oxadiazolyl]carbonyl)-2-(S)-methylpropyl]-L-prolinamide]	0.64
CC(C)C(NC(=O)CN1C(=O)C(c2ccccc2)N(CCN2CCOCC2)C1=O)C(=O)c1noc(Cc2cccc(C(F)(F)F)c2)n1 [CE2193, 1-(N-Morpholinoethyl)-5-(R,S)-phenyl-2,4-imidazolidindione-N-[1-(3-[5-(3-trifluoromethylbenzyl)-1,2,4-oxadiazolyl]carbonyl)-2-(R,S)-methylpropyl]acetamide]	36
3-(S)-[(4-Morpholino carbonyl-butanoyl)amino]-ε-lactam-N-[1-(2-[5-(3-methylbenzyl)-1,3,4-oxadiazolyl]carbonyl)-2-(R,S)-methylpropyl]acetamide [CE2091]	270
